For assay [1], the target named is West Nile Virus (WNV) NS2B-NS3 protease (West Nile virus (WNV), UniProt P06935). The assay is described as follows: WNV Protease Inhibition Assay. The assay is classed as biochemical. The text has this:
WNV Protease Inhibition Assay

The subject of assay [2] is ZIKV replicon in Vero cells. In words: ZIKV Replication Inhibition Assay (replicon, NanoLuc). The conditions noted are these: Zika virus, Vero, 72 h, read-out: Zika Replicon EC50. A general note: A replicon is a self-replicating genome or part of one, used to study replication in cells.
The mark [3] stands for this setting: 2 nM protease, 10 μM pERTKR-AMC substrate, read-out: WNV Protease IC50.

These results are taken from patent US20250353853A1, “FLAVIVIRUS INHIBITORS” (IRBM S.P.A., priority 2022, published 2025).

SMILES strings stand for the structures. Like-named read-outs stand apart in the source and are kept apart here. Where only a bound is given, the exact number is not on record here.

West Nile Virus (WNV) NS2B-NS3 protease, sequence (P06935 1502-1679 limits assumed): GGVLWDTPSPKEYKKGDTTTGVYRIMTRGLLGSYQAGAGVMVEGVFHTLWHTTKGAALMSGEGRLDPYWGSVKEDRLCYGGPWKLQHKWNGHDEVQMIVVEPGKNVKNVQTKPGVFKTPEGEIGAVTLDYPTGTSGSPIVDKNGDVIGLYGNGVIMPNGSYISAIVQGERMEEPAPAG
West Nile Virus (WNV) NS2B-NS3 protease, sequence (P06935 1371-1501 partner limits assumed): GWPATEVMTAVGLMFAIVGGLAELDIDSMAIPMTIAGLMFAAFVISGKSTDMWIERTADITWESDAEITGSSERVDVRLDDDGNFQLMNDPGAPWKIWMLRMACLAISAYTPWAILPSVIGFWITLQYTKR

For orientation: IC50 means the midpoint of a concentration-inhibition curve. One may read the EC50 as the midpoint of the concentration-response curve. For the compound `Cc1ccncc1-c1ccc(C[n+]2cc([N-]C(=O)Nc3cncc(C(F)(F)F)c3)on2)nc1` [Example 149, (3-((4′-methyl-[3,3′-bipyridin]-6-yl)methyl)-1,2,3-oxadiazol-3-ium-5-yl)((5-(trifluoromethyl)pyridin-3-yl)carbamoyl)amide], in assay [1], the half-inhibitory concentration (IC50) lay in the range of 100 to 1000 nM. Moreover, the 50% effective concentration (EC50) in assay [2] lay within 100 to 1000 nM.
`O=C([N-]c1c[n+](Cc2ccc(-c3cncnc3)cc2)no1)Nc1cccc(C(F)(F)F)c1` [Example 26, (3-(4-(Pyrimidin-5-yl)benzyl)-1,2,3-oxadiazol-3-ium-5-yl)((3-(trifluoromethyl)phenyl)carbamoyl)amide] gave a half-maximal inhibitory concentration (IC50) in assay [1] of 100 to 1000 nM. For the same compound, in assay [2], the EC50 lay in the range of 100 to 1000 nM.
Consider `O=C([N-]c1c[n+](Cc2ccc(-c3cccnc3)cc2)no1)Nc1cccc(C(F)(F)F)c1` [Example 22, (3-(4-(pyridin-3-yl)benzyl)-1,2,3-oxadiazol-3-ium-5-yl)((3-(trifluoromethyl)phenyl)carbamoyl)amide], for which the IC50 in assay [1] was in the range of 100 to 1000 nM. In addition, in assay [2], the EC50 lay in the range of 100 to 1000 nM.
`Cc1noc(C)c1-c1ccc(C[n+]2cc([N-]C(=O)Nc3cncc(C(F)(F)F)c3)on2)cc1` [Example 127, (3-(4-(3,5-dimethylisoxazol-4-yl)benzyl)-1,2,3-oxadiazol-3-ium-5-yl)((5-(trifluoromethyl)pyridin-3-yl)carbamoyl)amide]: the half-inhibitory concentration (IC50) in assay [1] was in the range of 100 to 1000 nM. For the same compound, the EC50 in assay [2] fell in the range of 100 to 1000 nM.
On to `Cc1noc(C)c1-c1ccc(C[n+]2cc([N-]C(=O)Nc3ccnc(C(F)(F)F)c3)on2)nc1` [Example 152, (3-((5-(3,5-dimethylisoxazol-4-yl)pyridin-2-yl)methyl)-1,2,3-oxadiazol-3-ium-5-yl)((2-(trifluoromethyl)pyridin-4-yl)carbamoyl)amide], for which, in assay [1] (setting [3]), the concentration for half-maximal inhibition (IC50) is less than 100 nM. Further, the EC50 in assay [2] is less than 100 nM.
Compound `Cn1cc(-c2ccc(C[n+]3cc([N-]C(=O)Nc4cccc(C(F)(F)F)c4)on3)cc2)cn1` [Example 23, (3-(4-(1-methyl-1H-pyrazol-4-yl)benzyl)-1,2,3-oxadiazol-3-ium-5-yl)((3-(trifluoromethyl)phenyl)carbamoyl)amide] displayed an IC50 in assay [1] of 100 to 1000 nM. Further, in assay [2], the half-maximal effective concentration (EC50) lay in the range of 100 to 1000 nM.
In assay [1], `Cc1cc(NC(=O)[N-]c2c[n+](Cc3ccc(-c4c(C)noc4C)cn3)no2)cc(C(F)(F)F)c1` [Example 156, (3-((5-(3,5-dimethylisoxazol-4-yl)pyridin-2-yl)methyl)-1,2,3-oxadiazol-3-ium-5-yl)((3-methyl-5-(trifluoromethyl)phenyl)carbamoyl)amide] yielded a half-inhibitory concentration (IC50) of 1000 to 20000 nM. Also, the EC50 in assay [2] lay within 100 to 1000 nM.
In the case of `Cc1nn(C)c(C)c1-c1ccc(C[n+]2cc([N-]C(=O)Nc3cccc(C(F)(F)F)c3)on2)nc1` [Example 143, ((3-(trifluoromethyl)phenyl)carbamoyl)(3-((5-(1,3,5-trimethyl-1H-pyrazol-4-yl)pyridin-2-yl)methyl)-1,2,3-oxadiazol-3-ium-5-yl)amide], in assay [1] (setting [3]), the 50% inhibitory concentration (IC50) is less than 100 nM. In addition, the EC50 in assay [2] was 100 to 1000 nM.
In the case of `O=C([N-]c1c[n+](Cc2ccc(-c3cncnc3C(F)(F)F)cn2)no1)Nc1cccc(C(F)(F)F)c1` [Example 131, ((3-(trifluoromethyl)phenyl)carbamoyl)(3-((5-(4-(trifluoromethyl)pyrimidin-5-yl)pyridin-2-yl)methyl)-1,2,3-oxadiazol-3-ium-5-yl)amide], the IC50 in assay [1] (setting [3]) is less than 100 nM. Besides, the concentration giving a half-maximal response (EC50) in assay [2] was less than 100 nM.
The compound `O=C([N-]c1c[n+](Cc2cccc(-c3cncnc3)c2)no1)Nc1cccc(C(F)(F)F)c1` [Example 50, (3-(3-(Pyrimidin-5-yl)benzyl)-1,2,3-oxadiazol-3-ium-5-yl)((3-(trifluoromethyl)phenyl)carbamoyl)amide] came in with an IC50 in assay [1] of 100 to 1000 nM. Further, the EC50 in assay [2] lay within 100 to 1000 nM.
With `O=C([N-]c1c[n+](Cc2ccc(-c3cncnc3C(F)(F)F)cn2)no1)Nc1cncc(C(F)(F)F)c1` [Example 137, ((5-(trifluoromethyl)pyridin-3-yl)carbamoyl)(3-((5-(4-(trifluoromethyl)pyrimidin-5-yl)pyridin-2-yl)methyl)-1,2,3-oxadiazol-3-ium-5-yl)amide], the IC50 in assay [1] (setting [3]) was less than 100 nM. In addition, the EC50 in assay [2] is less than 100 nM.
Turning to `Cc1noc(C)c1-c1ccc(C[n+]2cc([N-]C(=O)Nc3cncc(C(F)(F)F)c3)on2)nc1` [Example 126, (3-((5-(3,5-dimethylisoxazol-4-yl)pyridin-2-yl)methyl)-1,2,3-oxadiazol-3-ium-5-yl)((5-(trifluoromethyl)pyridin-3-yl)carbamoyl)amide], in assay [1] (setting [3]), the half-maximal inhibitory concentration (IC50) is less than 100 nM. The EC50 in assay [2] is less than 100 nM.
As for `Cc1ccncc1-c1ccc(C[n+]2cc([N-]C(=O)Nc3cccc(C(F)(F)F)c3)on2)nc1` [Example 139, (3-((4′-methyl-[3,3′-bipyridin]-6-yl)methyl)-1,2,3-oxadiazol-3-ium-5-yl)((3-(trifluoromethyl)phenyl)carbamoyl)amide], the IC50 in assay [1] (setting [3]) is less than 100 nM. Besides, the half-maximal effective concentration (EC50) in assay [2] was less than 100 nM.
`Cc1noc(C)c1-c1ccc(C[n+]2cc([N-]C(=O)Nc3ccc(Cl)c(C(F)(F)F)c3)on2)nc1` [Example 157, ((4-chloro-3-(trifluoromethyl)phenyl)carbamoyl)(3-((5-(3,5-dimethylisoxazol-4-yl)pyridin-2-yl)methyl)-1,2,3-oxadiazol-3-ium-5-yl)amide]: the IC50 in assay [1] was in the range of 1000 to 20000 nM. In addition, the EC50 in assay [2] lay within 100 to 1000 nM.
Taken in the same sequence, the figures for `O=C([N-]c1c[n+]([C@@H]2CCC[C@H]2c2ccccc2)no1)Nc1cccc(C(F)(F)F)c1` [Example 59, (3-((1R,2S)-2-phenylcyclopentyl)-1,2,3-oxadiazol-3-ium-5-yl)((3-(trifluoromethyl)phenyl)carbamoyl)amide] were 1000 to 20000 nM and 100 to 1000 nM.
In the case of `Cc1ncnc(C)c1-c1ccc(C[n+]2cc([N-]C(=O)Nc3cccc(C(F)(F)F)c3)on2)nc1` [Example 130, (3-((5-(4,6-dimethylpyrimidin-5-yl)pyridin-2-yl)methyl)-1,2,3-oxadiazol-3-ium-5-yl)((3-(trifluoromethyl)phenyl)carbamoyl)amide], in assay [1] (setting [3]), the IC50 was less than 100 nM. For the same compound, the EC50 in assay [2] was less than 100 nM.
Turning to `Cc1ncnc(C)c1-c1ccc(C[n+]2cc([N-]C(=O)Nc3cccc(C4CC4)c3)on2)nc1` [Example 182, ((3-cyclopropylphenyl)carbamoyl)(3-((5-(4,6-dimethylpyrimidin-5-yl)pyridin-2-yl)methyl)-1,2,3-oxadiazol-3-ium-5-yl)amide], the IC50 in assay [1] fell in the range of 100 to 1000 nM. Further, in assay [2], the EC50 lay within 100 to 1000 nM.
`C[C@H](c1ccc(-c2cncnc2)cc1)[n+]1cc([N-]C(=O)Nc2cccc(C(F)(F)F)c2)on1` [Example 72, (R)-(3-(1-(4-(pyrimidin-5-yl)phenyl)ethyl)-1,2,3-oxadiazol-3-ium-5-yl)((3-(trifluoromethyl)phenyl)carbamoyl)amide] displayed a half-inhibitory concentration (IC50) in assay [1] of 100 to 1000 nM. Besides, the EC50 in assay [2] lay in the range of 100 to 1000 nM.
Consider `O=C([N-]c1c[n+](Cc2ccc(-c3cncnc3C(F)(F)F)cn2)no1)Nc1ccnc(C(F)(F)F)c1` [Example 177, ((2-(trifluoromethyl)pyridin-4-yl)carbamoyl)(3-((5-(4-(trifluoromethyl)pyrimidin-5-yl)pyridin-2-yl)methyl)-1,2,3-oxadiazol-3-ium-5-yl)amide], for which, in assay [1] (setting [3]), the half-maximal inhibitory concentration (IC50) was less than 100 nM. Further, in assay [2], the half-maximal effective concentration (EC50) was 100 to 1000 nM.
`O=C([N-]c1c[n+](Cc2ccc(I)cc2)no1)Nc1cccc(C(F)(F)F)c1` [Example 47, (3-(4-iodobenzyl)-1,2,3-oxadiazol-3-ium-5-yl)((3-(trifluoromethyl)phenyl)carbamoyl)amide] registered a concentration for half-maximal inhibition (IC50) in assay [1] of 100 to 1000 nM. For the same compound, the EC50 in assay [2] was 100 to 1000 nM.
Regarding `COc1nccc(C)c1-c1ccc(C[n+]2cc([N-]C(=O)Nc3cccc(C(F)(F)F)c3)on2)nc1` [Example 159, (3-((2′-methoxy-4′-methyl-[3,3′-bipyridin]-6-yl)methyl)-1,2,3-oxadiazol-3-ium-5-yl)((3-(trifluoromethyl)phenyl)carbamoyl)amide], the IC50 in assay [1] lay within 100 to 1000 nM. Further, in assay [2], the 50% effective concentration (EC50) was less than 100 nM.
As for `Cc1noc(C)c1-c1ccc(C[n+]2cc([N-]C(=O)Nc3ccnc(C(F)(F)F)c3)on2)cc1` [Example 186, (3-(4-(3,5-dimethylisoxazol-4-yl)benzyl)-1,2,3-oxadiazol-3-ium-5-yl)((2-(trifluoromethyl)pyridin-4-yl)carbamoyl)amide], the half-inhibitory concentration (IC50) in assay [1] (setting [3]) was less than 100 nM. In assay [2], the concentration for a half-maximal effect (EC50) is less than 100 nM.
In turn, `O=C([N-]c1c[n+]([C@@H](Cc2ccccc2)CN2CCCC2)no1)Nc1cccc(C(F)(F)F)c1` [Example 40, (S)-(3-(1-phenyl-3-(pyrrolidin-1-yl)propan-2-yl)-1,2,3-oxadiazol-3-ium-5-yl)((3-(trifluoromethyl)phenyl)carbamoyl)amide] had a half-maximal inhibitory concentration (IC50) in assay [1] of 1000 to 20000 nM. Moreover, the EC50 in assay [2] lay in the range of 1000 to 20000 nM.
On to `Cn1cc(-c2cccc(C[n+]3cc([N-]C(=O)Nc4cccc(C(F)(F)F)c4)on3)c2)cn1` [Example 52, (3-(3-(1-methyl-1H-pyrazol-4-yl)benzyl)-1,2,3-oxadiazol-3-ium-5-yl)((3-(trifluoromethyl)phenyl)carbamoyl)amide], for which the IC50 in assay [1] lay within 100 to 1000 nM. In addition, the half-maximal effective concentration (EC50) in assay [2] lay in the range of 100 to 1000 nM.
For `Cc1ccnnc1-c1ccc(C[n+]2cc([N-]C(=O)Nc3cccc(C(F)(F)F)c3)on2)nc1` [Example 162, (3-((5-(4-methylpyridazin-3-yl)pyridin-2-yl)methyl)-1,2,3-oxadiazol-3-ium-5-yl)((3-(trifluoromethyl)phenyl)carbamoyl)amide], the IC50 in assay [1] (setting [3]) is less than 100 nM. Moreover, in assay [2], the 50% effective concentration (EC50) was less than 100 nM.
Compound `Cc1ncnc(C)c1-c1ccc(C[n+]2cc([N-]C(=O)Nc3cncc(C(F)(F)F)c3)on2)nc1` [Example 132, (3-((5-(4,6-dimethylpyrimidin-5-yl)pyridin-2-yl)methyl)-1,2,3-oxadiazol-3-ium-5-yl)((5-(trifluoromethyl)pyridin-3-yl)carbamoyl)amide] displayed an IC50 in assay [1] of 100 to 1000 nM. In assay [2], the EC50 lay in the range of 100 to 1000 nM.
